Target: T1, MAL2 (GFP-MAL2) (Homo sapiens, UniProt Q969L2)
T1 construct: GFP fusion (GFP-MAL2) transiently expressed in HEK293T, diluted cell lysate, not purified
Experiment: microscale thermophoresis, GFP-MAL2 in HEK293T lysate
Format: binding
Text: microscale thermophoresis, GFP-MAL2 in HEK293T lysate on MAL2 (GFP-MAL2) | only sarizotan could assemble with MAL2, with a dissociation constant (Kd)

T1 sequence (Q969L2 whole entry, the tested form may be a part): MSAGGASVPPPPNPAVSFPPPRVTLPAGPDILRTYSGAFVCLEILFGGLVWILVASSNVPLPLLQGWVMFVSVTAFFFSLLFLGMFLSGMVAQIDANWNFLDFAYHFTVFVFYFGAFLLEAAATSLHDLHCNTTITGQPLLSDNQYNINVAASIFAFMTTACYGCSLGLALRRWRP

Kd: 36.1 µM
Compound: Fc1ccc(-c2cncc(CNC[C@H]3CCc4ccccc4O3)c2)cc1 [sarizotan]

Reference: article PMC11169275, “MAL2 reprograms lipid metabolism in intrahepatic cholangiocarcinoma via EGFR/SREBP-1 pathway based on single-cell RNA sequencing” (Cell Death & Disease, 2024)
